Results: publication PMC12631900, “Preservation of ALYREF Phase Separation Mitigates Doxorubicin‐Induced Cardiomyocyte DNA Damage and Cardiotoxicity” (Advanced Science, 2025)

Key:
ALYREF [1] = target: T1, ALYREF (Mus musculus, UniProt O08583, DEL113-113); assay: cellular thermal shift assay (also DARTS in lysate); format: cell-based; conditions: Flag-tagged mutant transfected into mouse cardiomyocytes
T1 construct: full length; endogenous in neonatal mouse cardiomyocytes (wild type); Flag-tagged plasmids transfected into the cardiomyocytes for the deletion mutants

ALYREF [2] = target: T2, ALYREF (Mus musculus, UniProt O08583, DEL171-171); assay: as above; format: cell-based; conditions: Flag-tagged mutant transfected into mouse cardiomyocytes
T2 construct: full length; endogenous in neonatal mouse cardiomyocytes (wild type); Flag-tagged plasmids transfected into the cardiomyocytes for the deletion mutants

ALYREF [3] = target: T3, ALYREF (Mus musculus, UniProt O08583); assay: as above; format: cell-based; conditions: mouse cardiomyocytes; 40 to 67 °C, 3 min; vs DMSO
T3 construct: full length; endogenous in neonatal mouse cardiomyocytes (wild type); Flag-tagged plasmids transfected into the cardiomyocytes for the deletion mutants

[4] = target: ALYREF (purified recombinant, pSMARt‐I‐ALYREF) (Mus musculus, UniProt O08583); assay: in vitro droplet (phase separation) assay, microscopy; format: biochemical; conditions: 250 mmol/L Tris pH 8.0, 10% PEG-8000, room temperature

## COc1cccc2c1C(=O)c1c(O)c3c(c(O)c1C2=O)C[C@@](O)(C(=O)CO)C[C@@H]3O[C@H]1C[C@H](N)[C@H](O)[C@H](C)O1 [doxorubicin]
ALYREF [1]
  binding retained (DARTS, CESTA): DOX remained capable of binding to the ΔD113 mutant
ALYREF [2]
  binding abolished (DARTS, CESTA): Deletion of D171 abolished the interaction between ALYREF and DOX
ALYREF [3]
  thermal stability (CESTA): DOX treatment significantly increased the thermal stability of ALYREF compared with the DMSO control
[4]
  droplet disruption: also disrupted by DOX, which caused droplet disintegration and structural irregularity
